Test system: peptide-pulsed C1R-A11
Assay: IFN-gamma ELISA of CTL lines and CTL clones (HLA-A*1101)
Format: cell-based, human
Conditions: for IFN-gamma production of CTL clones: CTL clones by limiting dilution
Experimental: CTLs were propagated in culture using methods similar to those disclosed by Riddell et al. (Walter E A et al., N Engl J Med 1995, 333(16): 1038-44; Riddell S R et al., Nat Med 1996, 2(2): 216-23). The CTLs were co-cultured in a total of 25 ml AIM-V medium containing 5% AS (AIM-V/5% AS) and 40 ng/ml anti-CD3 antibody with two types of Mitomycin C-treated human B lymphoblastoid cell lines at 5×10^6 cells/flask. One day after beginning of the culturing, 120 IU/ml IL-2 was added to the culture. On days 5, 8 and 11, a fresh AIM-V/5% AS medium containing 30 IU/ml IL-2 was added to the culture (Tanaka H et al., Br J Cancer 2001, 84(1): 94-9; Umano Y et al., Br J Cancer 2001, 84(8): 1052-7; Uchida N et al., Clin Cancer Res 2004, 10(24): 8577-86; Suda T et al., Cancer Sci 2006, 97(5): 411-9; Watanabe T et al., Cancer Sci 2005, 96(8): 498-506).
Dilution of CTLs was carried out to make 0.3, 1 and 3 cells/well in 96 round-bottomed microtiter plates (Nalge Nunc International). The CTLs were co-cultured with two types of Mitomycin C-treated human B lymphoblastoid cell lines at 1×10^4 cells/well in a total of 150 micro-l/well AIM-V/5% AS medium with 30 ng/ml anti-CD3 antibody and 125 IU/ml IL-2. Ten days later, IL-2 was added to the medium at 50 micro-l/well to reach a final concentration of 125 IU/ml. On day 14, the CTL activity was tested, and the CTL clones were propagated using the same method as described above (Uchida N et al., Clin Cancer Res 2004, 10(24): 8577-86; Suda T et al., Cancer Sci 2006, 97(5): 411-9; Watanabe T et al., Cancer Sci 2005, 96(8): 498-506).
Specifically, peptide-pulsed C1R-A11 (1×10^4 cells/well) was prepared as the stimulator cell. The induced CTLs, i.e., CTL lines and CTL clones, were used as the responder cell. The IFN-gamma ELISPOT assay and IFN-gamma ELISA were performed according to the manufacturer's manual.

Sequence: KTKRLNELK (a peptide derived from CDCA1) [SEQ ID NO: 7]
- IFN-gamma production of CTL clones (peptide-pulsed C1R-A11, listed as CDCA1-A1-9-219): potent IFN-gamma production
- IFN-gamma production of CTL clones (peptide-pulsed C1R-A11, listed as CDCA1-A11-9-219): Potent IFN-gamma production
- IFN-gamma production of CTL lines (CTL lines, peptide-pulsed vs non-pulsed target cells, HLA-A*1101): potent IFN-gamma production

Reference: patent US10676514B2, “CDCA1-derived peptide and vaccine containing same” (ONCOTHERAPY SCIENCE, INC., priority 2014, dated 2020)
